In patent publication US12180252B2, “Peptide derived from PEP27 peptide and uses thereof” (priority 2021, dated 2024):
In brackets after ≈: the same amount, converted by molar mass. Like-named read-outs stand apart in the source and are kept apart here. Where a SMILES comes first, the peptide text is derived from it.

Columns and labels:
S. aureus ATCC29213 = assay: microbe, parasite or virus in culture; conditions: ATCC29213, 18 h; for MIC: Staphylococcus aureus, read-out: Minimal inhibitory concentration
Experimental: (§1) In order to evaluate the antimicrobial activity of the peptides prepared by the method of above 1, a minimal inhibitory concentration (MIC) value as the minimum concentration of a peptide, in which cells are not divided, was measured.
(§2) Specifically, the strains shown in Table 3 below were purchased, cultured in a medium having a constitutional composition suitable for each strain to a mid-log phase, and then diluted to a concentration of 2×10^4 cells/100 μl to prepare the product on a micro-titration plate (Nunc, USA). Then, PEP27, PEP27-1, PEP27-2 or PEP27-5 peptide synthesized in the above 1 was added to each well by serial dilution ½ times, followed by incubation at 37° C. for 18 hours.
(§3) Specifically, subject strains were prepared by the method of above 2, and were treated with the antibiotics, that is, meropenem, ceftazidime, ceftriaxone or vancomycin, respectively, followed by determining MICs of the antibiotics.

S. aureus CCARM3090 = assay: microbe, parasite or virus in culture; conditions: for MIC: Staphylococcus aureus, CCARM3090, 18 h, read-out: Minimal inhibitory concentration
Experimental: as §1, §2, §3

S. aureus ATCC25923 = assay: microbe, parasite or virus in culture; conditions: ATCC25923, 18 h; for MIC: Staphylococcus aureus, read-out: Minimal inhibitory concentration
Experimental: as §1, §2, §3

S. aureus CCARM3089 = assay: microbe, parasite or virus in culture; conditions: for MIC: Staphylococcus aureus, CCARM3089, 18 h, read-out: Minimal inhibitory concentration
Experimental: as §1, §2, §3

P. aeruginosa ATCC15692 = assay: microbe, parasite or virus in culture; conditions: ATCC15692, 18 h; for MIC: Pseudomonas aeruginosa, read-out: Minimal inhibitory concentration
Experimental: as §1, §2, §3

S. aureus CCARM3518 = assay: microbe, parasite or virus in culture; conditions: for MIC: Staphylococcus aureus, CCARM3518, 18 h, read-out: Minimal inhibitory concentration
Experimental: as §1, §2, §3

P. aeruginosa 4007 = assay: microbe, parasite or virus in culture; conditions: for MIC: Pseudomonas aeruginosa, 4007, 18 h, read-out: Minimal inhibitory concentration
Experimental: as §1, §2, §3

P. aeruginosa ATCC27853 = assay: microbe, parasite or virus in culture; conditions: ATCC27853, 18 h; for MIC: Pseudomonas aeruginosa, read-out: Minimal inhibitory concentration
Experimental: as §1, §2, §3

S. aureus MW2 = assay: microbe, parasite or virus in culture; conditions: for MIC: Staphylococcus aureus, MW2, 18 h, read-out: Minimal inhibitory concentration
Experimental: as §1, §2, §3

S. aureus USA300 = assay: microbe, parasite or virus in culture; conditions: for MIC: Staphylococcus aureus, USA300, 18 h, read-out: Minimal inhibitory concentration
Experimental: as §1, §2, §3

P. aeruginosa 4891 = assay: microbe, parasite or virus in culture; conditions: for MIC: Pseudomonas aeruginosa, 4891, 18 h, read-out: Minimal inhibitory concentration
Experimental: as §1, §2, §3

[1] = tested on: Sa. typhimurium CCARM8007; assay type: cell-based, Salmonella typhimurium; conditions: Sa. typhimurium CCARM8007, antibiotics-tolerant; 37° C., 18 hours
Experimental: as §1, §2

[2] = tested on: Sa. typhimurium CCARM8009; assay type: cell-based, Salmonella typhimurium; conditions: Sa. typhimurium CCARM8009, antibiotics-tolerant; 37° C., 18 hours
Experimental: as §1, §2

Sa. typhimurium KCTC1926 = assay type: cell-based, Salmonella typhimurium; conditions: KCTC1926, 18 h
Experimental: as §1, §2

B. subtilis KCTC1998 = assay type: cell-based, Bacillus subtilis; conditions: KCTC1998, 18 h
Experimental: as §1, §2

HaCaT and MCF-7 cells = assay: MTT cytotoxicity; assay type: cell-based, human; conditions: 100 μM, 24 h, MTT, HaCaT and MCF-7 cells
Experimental: Specifically, Thiazolyl blue tetrazolium bromide (MTT, Merck KGaA) was used to determine the cytotoxicity of PEP27 and its analogs against HaCaT (human keratinocyte […], n=4 per condition) and MCF-7 (human breast adenocarcinoma, n=3 per condition) cells. The cells were cultured in Dulbecco's modified Eagle's medium (DMEM) supplemented with 10 heat-inactivated fetal bovine serum (FBS, Gibco, Grand Island, NY, USA) and 1% penicillin-streptomycin (Gibco) at a density of 2×10^4 cells/well (96-well plate). Peptides were then added at various concentrations and incubated for 24 h at 37° C., after which MTT (final concentration, 0.5 mg/mL) was added to each well and incubated for 4 h. The formazan product was solubilized in DMSO, and the absorbance at 570 nm was measured to […] cytotoxicity. Cells treated with 0.1% Triton X-100 were used as the 100% cytotoxic control sample.

[3] = tested on: red blood cells of a rat (Balb/c); conditions: 37° C., 1 hour
Experimental: In order to compare the cytotoxicity of the peptides prepared by the method of above 1, erythrocyte hemolytic activity of each of the synthesized peptides was measured.
Specifically, red blood cells of a rat (Balb/c, 6 weeks old, female) were diluted with PBS (pH 7.0) to a concentration of 8%, and PEP27, PEP27-1, PEP27-2 and PEP27-5 peptides were used for treatment of the cells at concentrations of 3.13, 6.25, 12.5, 25.01 50.0 and 100.0 μM/well, respectively, followed by reaction at 37° C. for 1 hour. Then, an amount of hemoglobin contained in the supernatant obtained by centrifugation at 1,000×g was determined by measuring the absorbance at a wavelength of 414 nm. As a control which is a standard for the degree of cell destruction, the absorbance of the obtained supernatant was measured after treatment using 1% Triton X-100 (Sigma, USA) and reaction at 37° C. for 1 hour. With reference to 100% erythrocytes hemolysis activity, hemolysis of each peptide was calculated from the measured absorbance using Equation 1 below. Erythrocyte destruction ability (%)=(Absorbance A−Absorbance B)/(Absorbance C−Absorbance B)×100 [Equation 1]
(wherein, absorbance A represents the absorbance of a reaction solution treated with each peptide measured at a wavelength of 414 nm; absorbance B represents the absorbance of a reaction solution treated with PBS measured at a wavelength of 414 nm; and absorbance C represents the absorbance of a reaction solution treated with 1% Triton X-100 measured at a wavelength of 414 nm).

E. coli ATCC27325 = assay type: cell-based, Escherichia coli; conditions: ATCC27325, 18 h
Experimental: as §1, §2

E. coli CCARM1229 = assay type: cell-based, Escherichia coli; conditions: E. coli CCARM1229, antibiotics-tolerant; 37° C., 18 hours
Experimental: as §1, §2

E. coli ATCC25922 = assay type: cell-based, Escherichia coli; conditions: ATCC25922, 18 h
Experimental: as §1, §2

E. coli CCARM1238 = assay type: cell-based, Escherichia coli; conditions: E. coli CCARM1238, antibiotics-tolerant; 37° C., 18 hours
Experimental: as §1, §2

L. monocytogens KCTC3710 = assay type: cell-based, Listeria monocytogenes; conditions: KCTC3710, 18 h
Experimental: as §1, §2

CN[C@H](CC(C)C)C(=O)N[C@H]1C(=O)N[C@@H](CC(N)=O)C(=O)N[C@H]2C(=O)N[C@H]3C(=O)N[C@H](C(=O)N[C@H](C(=O)O)c4cc(O)cc(O)c4-c4cc3ccc4O)[C@H](O)c3ccc(c(Cl)c3)Oc3cc2cc(c3O[C@@H]2O[C@H](CO)[C@@H](O)[C@H](O)[C@H]2O[C@H]2C[C@](C)(N)[C@H](O)[C@H](C)O2)Oc2ccc(cc2Cl)[C@H]1O [Vancomycin, vancomycin]
MIC (S. aureus ATCC29213): 0.25 µM (≈ 0.362 µg/mL)
MIC (S. aureus CCARM3090): 0.5 µM (≈ 0.725 µg/mL)
MIC (S. aureus ATCC25923): 0.25 µM (≈ 0.362 µg/mL)
MIC (S. aureus CCARM3089): 0.25 µM (≈ 0.362 µg/mL)
MIC (P. aeruginosa ATCC15692): 512 µM (≈ 742 µg/mL)
MIC (S. aureus CCARM3518): 0.25 µM (≈ 0.362 µg/mL)
MIC (P. aeruginosa 4007): 512 µM (≈ 742 µg/mL)
MIC (P. aeruginosa ATCC27853): 256 µM (≈ 371 µg/mL)
MIC (S. aureus MW2): 0.25 µM (≈ 0.362 µg/mL)
MIC (S. aureus USA300): 0.25 µM (≈ 0.362 µg/mL)
MIC (P. aeruginosa 4891): 512 µM (≈ 742 µg/mL)

CSCC[C@H](N)C(=O)N[C@@H](Cc1c[nH]c2ccccc12)C(=O)N[C@@H](CCCCN)C(=O)N[C@@H](Cc1c[nH]c2ccccc12)C(=O)N[C@@H](Cc1ccccc1)C(=O)N[C@@H](Cc1c[nH]cn1)C(=O)N[C@@H](CC(N)=O)C(=O)N[C@H](C(=O)N[C@@H](CC(C)C)C(=O)N[C@@H](CO)C(=O)N[C@@H](CO)C(=O)NCC(=O)N[C@@H](CCC(N)=O)C(=O)N[C@@H](CC(C)C)C(=O)N[C@@H](CC(C)C)C(=O)N[C@@H](C)C(=O)N[C@@H](CC(=O)O)C(=O)N[C@@H](CCCCN)C(=O)N[C@@H](CCCNC(=N)N)C(=O)N1CCC[C@H]1C(=O)N[C@@H](C)C(=O)N[C@@H](CCCNC(=N)N)C(=O)N[C@@H](CC(=O)O)C(=O)N[C@@H](Cc1ccc(O)cc1)C(=O)N[C@@H](CC(N)=O)C(=O)N[C@@H](CCCNC(=N)N)C(=O)N[C@@H](CCCCN)C(N)=O)C(C)C [PEP27-1] (H-MWKWFHNVLSSGQLLADKRPARDYNRK-NH2)
Minimal inhibitory concentration [1]: 32 µM (≈ 106 µg/mL)
Minimal inhibitory concentration [2]: 32 µM (≈ 106 µg/mL)
Minimal inhibitory concentration (Sa. typhimurium KCTC1926): 32 µM (≈ 106 µg/mL)
Minimal inhibitory concentration (B. subtilis KCTC1998): 32 µM (≈ 106 µg/mL)
Minimal inhibitory concentration (S. aureus ATCC29213): 32 µM (≈ 106 µg/mL)
Minimal inhibitory concentration (S. aureus CCARM3090; S. aureus CCARM3090, antibiotics-tolerant, 37° C., 18 hours): 16 µM (≈ 53.1 µg/mL)
Minimal inhibitory concentration (S. aureus ATCC25923): 32 µM (≈ 106 µg/mL)
Minimal inhibitory concentration (S. aureus CCARM3089; S. aureus CCARM3089, antibiotics-tolerant, 37° C., 18 hours): 32 µM (≈ 106 µg/mL)
Minimal inhibitory concentration (P. aeruginosa ATCC15692): 32 µM (≈ 106 µg/mL)
Minimal inhibitory concentration (S. aureus CCARM3518; S. aureus CCARM3518, antibiotics-tolerant, 37° C., 18 hours): 32 µM (≈ 106 µg/mL)
Minimal inhibitory concentration (P. aeruginosa 4007; 4007, 18 h): 32 µM (≈ 106 µg/mL)
Minimal inhibitory concentration (P. aeruginosa ATCC27853): 32 µM (≈ 106 µg/mL)
Minimal inhibitory concentration (S. aureus MW2; S. aureus MW2, antibiotics-tolerant, 37° C., 18 hours): 32 µM (≈ 106 µg/mL)
Minimal inhibitory concentration (S. aureus USA300; S. aureus USA300, antibiotics-tolerant, 37° C., 18 hours): 32 µM (≈ 106 µg/mL)
Minimal inhibitory concentration (P. aeruginosa 4891; 4891, 18 h): 32 µM (≈ 106 µg/mL)
cell viability (HaCaT and MCF-7 cells): 41%-42%
Erythrocyte destruction ability ([3]; Peptide concentration 3.13 μM): 0%
Erythrocyte destruction ability ([3]; Peptide concentration 6.25 μM): 1.05%
Erythrocyte destruction ability ([3]; Peptide concentration 12.5 μM): 1.97%
Erythrocyte destruction ability ([3]; Peptide concentration 25 μM): 25.75%
Erythrocyte destruction ability ([3]; Peptide concentration 50 μM): 44.51%
Erythrocyte destruction ability ([3]; Peptide concentration 100 μM, 100% = 1% Triton X-100): 50.65%
Minimal inhibitory concentration (E. coli ATCC27325): 32 µM (≈ 106 µg/mL)
Minimal inhibitory concentration (E. coli CCARM1229): 32 µM (≈ 106 µg/mL)
Minimal inhibitory concentration (E. coli ATCC25922): 64 µM (≈ 212 µg/mL)
Minimal inhibitory concentration (E. coli CCARM1238): 32 µM (≈ 106 µg/mL)
Minimal inhibitory concentration (L. monocytogens KCTC3710): 64 µM (≈ 212 µg/mL)

CC(C)(O/N=C(\C(=O)N[C@@H]1C(=O)N2C(C(=O)[O-])=C(C[n+]3ccccc3)CS[C@H]12)c1csc(N)n1)C(=O)O [Ceftazidime, ceftazidime]
MIC (S. aureus ATCC29213): 3 µM (≈ 1.64 µg/mL)
MIC (S. aureus CCARM3090): 512 µM (≈ 280 µg/mL)
MIC (S. aureus ATCC25923): 16 µM (≈ 8.75 µg/mL)
MIC (S. aureus CCARM3089): 512 µM (≈ 280 µg/mL)
MIC (P. aeruginosa ATCC15692): 4 µM (≈ 2.19 µg/mL)
MIC (S. aureus CCARM3518): 64 µM (≈ 35 µg/mL)
MIC (P. aeruginosa 4007): 16 µM (≈ 8.75 µg/mL)
MIC (P. aeruginosa ATCC27853): 2 µM (≈ 1.09 µg/mL)
MIC (S. aureus MW2): 32 µM (≈ 17.5 µg/mL)
MIC (S. aureus USA300): 32 µM (≈ 17.5 µg/mL)
MIC (P. aeruginosa 4891): 16 µM (≈ 8.75 µg/mL)

C[C@@H](O)[C@H]1C(=O)N2C(C(=O)O)=C(S[C@@H]3CN[C@H](C(=O)N(C)C)C3)[C@H](C)[C@H]12 [Meropenem, meropenem]
MIC (S. aureus ATCC29213): 2 µM (≈ 0.767 µg/mL)
MIC (S. aureus CCARM3090): 128 µM (≈ 49.1 µg/mL)
MIC (S. aureus ATCC25923): 2 µM (≈ 0.767 µg/mL)
MIC (S. aureus CCARM3089): 64 µM (≈ 24.5 µg/mL)
MIC (P. aeruginosa ATCC15692): 2 µM (≈ 0.767 µg/mL)
MIC (S. aureus CCARM3518): 64 µM (≈ 24.5 µg/mL)
MIC (P. aeruginosa 4007): 4 µM (≈ 1.53 µg/mL)
MIC (P. aeruginosa ATCC27853): 2 µM (≈ 0.767 µg/mL)
MIC (S. aureus MW2): 2 µM (≈ 0.767 µg/mL)
MIC (S. aureus USA300): 2 µM (≈ 0.767 µg/mL)
MIC (P. aeruginosa 4891): 8 µM (≈ 3.07 µg/mL)
